# Assay results reported in PubChem BioAssay AID1996.
# Conditions: buffer; pH 7.4; 200.0 µM
row,Structure (SMILES),solubility kinetic
1,COc1cccc(C(=O)NNC(=O)CCC(=O)O)c1,> 39.9 µg/mL
2,CSc1cccc(NC(=S)NCCCO)c1,37.3 µg/mL
3,CCn1c(SCC(=O)O)nnc1-c1ccccc1OC,> 44 µg/mL
4,CCc1ccc(S(=O)(=O)NCc2cccs2)cc1,35.6 µg/mL
5,Cc1cc(OC(=O)N(C)C)nc(SCc2c(Cl)cccc2Cl)n1,6.5 µg/mL
6,N#CC(C(=S)Nc1ccccc1)c1nc2ccccc2[nH]1 (stereo unspecified),0.9 µg/mL
7,Cc1cccc(NC(=O)Cc2ccc(-c3ccccc3)cc2)n1,3.6 µg/mL
8,CC(C)C(NC(=O)c1ccc(F)cc1)C(=O)NCC1CCCO1 (stereo unspecified),> 48.4 µg/mL
9,O=C(COC(=O)c1ccc([N+](=O)[O-])o1)NCc1ccccc1,> 45.6 µg/mL
10,CC(C)c1onc(C(=O)Nc2cccc(O)c2)c1[N+](=O)[O-],37.4 µg/mL
11,COc1ccc(NC(=S)Nc2ccc(F)cc2)cc1,27.7 µg/mL
12,CC(C)(C)c1cc(CCC(=O)NCC2CCCO2)cc(C(C)(C)C)c1O (stereo unspecified),20.2 µg/mL
13,Nc1ccccc1C(=O)NC1CCCNC1=O (stereo unspecified),> 35 µg/mL
14,Cc1nc(SCc2cccnc2)[nH]c(=O)c1C,> 37.1 µg/mL
15,CCOc1cccc(NC(=O)/C(C#N)=C/c2cccnc2)c1,31.7 µg/mL
16,O=C(COC(=O)CNC(=O)c1ccc(Cl)cc1)Nc1ccc(Cl)cn1,3.2 µg/mL
17,COc1ccc(-c2cc(=O)[nH]c(N3CCN(Cc4ccccc4)CC3)n2)cc1,0.8 µg/mL
18,COc1cccc(N2CCN(C(=O)c3cc4ccc(OC)cc4[nH]3)CC2)c1,1.6 µg/mL
19,O=C(O)CCNC(=O)/C(=C\c1ccco1)NC(=O)c1ccco1,> 47.7 µg/mL
20,CC(=O)Nc1ccc(S(=O)(=O)NC(C)CCc2ccccc2)cc1 (stereo unspecified),> 52 µg/mL
21,CCN1CCN(c2ccc(N)c(C)c2)CC1,28.7 µg/mL
22,O=C1CNC(=S)N1Cc1cccc(Cl)c1,> 36.1 µg/mL

row,Structure (SMILES),solubility kinetic
1,O=C(CCS(=O)(=O)c1ccccc1)NCc1ccccc1,> 45.5 µg/mL
2,Cc1ccc(Oc2ccc(OCC(=O)NC3CCS(=O)(=O)C3)cc2)cc1 (stereo unspecified),7.6 µg/mL
3,CCOc1ccc(NC(=O)C2CCCN(S(C)(=O)=O)C2)cc1 (stereo unspecified),4.1 µg/mL
4,CCOc1cc(/C=C2\SC(N)=NC2=O)ccc1O,22.5 µg/mL
5,CCC(C)NC(=O)Cn1nc(Cc2ccncc2)c2ccccc2c1=O (stereo unspecified),> 52.6 µg/mL
6,O=S(=O)(Cc1ncc(C(F)(F)F)cc1Cl)c1ccccc1,> 50.4 µg/mL
7,N#C/C(=C\c1ccccc1)C(=O)Nc1ccccn1,> 37.4 µg/mL
8,COc1cccc(/C=C/C(=O)OCC(=O)NCc2ccc3c(c2)OCO3)c1,3.3 µg/mL
9,COc1ccc(C(=O)N/N=C\c2ccoc2)cc1,> 36.6 µg/mL
10,Cn1ccsc1=NC(=O)c1ccc(S(C)(=O)=O)cc1,> 44.5 µg/mL
11,COc1ccccc1NC(=O)COC(=O)c1cc(C)oc1C,6.7 µg/mL
12,Cc1onc(-c2c(Cl)cccc2Cl)c1C(=O)Nc1nccs1,4.7 µg/mL
13,O=C(Nc1ccccc1C(=O)NCCc1ccc(O)cc1)c1ccco1,24.2 µg/mL
14,CNC(=S)N1CCn2cccc2C1c1cc(OC)c(OC)c(OC)c1 (stereo unspecified),> 54.2 µg/mL
15,Cc1ccc2c(c1)c1c3n2CCNC3CCC1.Cl (stereo unspecified),> 39.4 µg/mL
16,CSc1sc(C#N)c2c1/C(=N\O)CCC2,1 µg/mL
17,COc1c(C)cc(Br)cc1C(=O)Nc1ccccc1C,< 0.7 µg/mL
18,O=C(CCNC(=O)c1ccccc1)NCCCc1ccccc1,> 46.6 µg/mL
19,O=C(Nc1ccc(S(=O)(=O)N2CCCCC2)cc1)C1CC1,> 46.3 µg/mL
20,CNC(=O)Nc1ccc(C2SCCS2)cc1,19.9 µg/mL
21,O=C1NC(c2ccccc2Cl)=N/C1=C/c1ccco1,8.5 µg/mL
22,CN1CCN(C(=O)c2cc(Cl)cc(Cl)c2)CC1,> 41 µg/mL

row,Structure (SMILES),solubility kinetic
1,CN1C(=O)C(c2ccccc2)C(=O)N(C)C1=O,30.5 µg/mL
2,CC12CN3CC(C)(CN(C1)C3c1ccc(Cl)cc1)C2 (stereo unspecified),30.9 µg/mL
3,O=C(Nc1ccc(CN2CCS(=O)(=O)CC2)cc1)c1ccccc1,31.4 µg/mL
4,Cc1nc2ccccc2c(=O)n1-c1ccncc1,29.1 µg/mL
5,COC(=O)[C@H](CC(C)C)NC(=O)N1CCCCC1,> 38.5 µg/mL
6,O=C(COC(=O)C12CC3CC(CC(Cl)(C3)C1)C2)N1CCCCC1,27.5 µg/mL
7,Cc1cc(C)c2nc(NC(=O)c3ccco3)sc2c1,0.4 µg/mL
8,COc1cc(/C=C/C(=O)Nc2ccc(OC)c(S(=O)(=O)N3CCOCC3)c2)ccc1OCC#N,7.1 µg/mL
9,Cc1ccc(C(=O)O/N=C2/CC3CCC2(C)[C@@]3(C)CBr)cc1 (stereo partly specified),< 0.8 µg/mL
10,Cn1cccc1/C=C1\SC(=Nc2cccc(O)c2)NC1=O,5.6 µg/mL
11,COc1ccc(CC(=O)NC2CCCCCC2)c(OC)c1,37.6 µg/mL
12,CCCN(CCC)C(=O)Cc1ccc(F)cc1,28 µg/mL
13,CC(=O)NC(c1ccc(C(C)C)cc1)c1c(O)ccc2ccccc12 (stereo unspecified),< 0.7 µg/mL
14,CCNC(=O)COC(=O)c1cc(C)nc2ccccc12,> 40.8 µg/mL
15,CCOC(=O)C1CCN(C(=O)Nc2cc(Cl)cc(Cl)c2)CC1,20.4 µg/mL
16,CCN1CCCC1CNC(=O)C(=O)NC(C)C (stereo unspecified),> 36.2 µg/mL
17,CCN(C(=S)NC(=O)Cc1ccc(OC)cc1)c1ccccc1,48.9 µg/mL
18,CN(c1ccccc1)c1nc(N)c([N+](=O)[O-])c(Nc2ccccc2)n1,< 0.1 µg/mL
19,CC(=O)Nc1ccc(S(=O)(=O)N2CCN3CCCC3C2)cc1 (stereo unspecified),> 48.5 µg/mL
20,O=NN1CCN(c2ccncc2S(=O)(=O)N2CCCCC2)CC1,> 50.9 µg/mL
21,COCCN(CC(=O)Nc1cccc(C)c1C)C(=O)C1(c2ccccc2)CC1,> 57.1 µg/mL
22,O=C(NC1CCCC1)c1cc(-c2ccccc2Cl)on1,2.2 µg/mL

row,Structure (SMILES),solubility kinetic
1,COC(=O)c1[nH]c2ccccc2c1NC(=O)c1ccccc1F,2.1 µg/mL
2,COc1ccc2c(c1OC)C(=O)OC2Nc1nc2ccccc2s1 (stereo unspecified),50.4 µg/mL
3,CCN1CCc2c(OCc3ccc(C)cc3)cccc2C1=O,18.9 µg/mL
4,CCOP(=O)(OCC)C(NC(=O)c1ccc(OC)cc1)c1ccccc1 (stereo unspecified),53.8 µg/mL
5,O=C(Nc1ccc(Cl)cn1)c1cccc(OCc2ccccc2)c1,0.7 µg/mL
6,O=C(Nc1cccnc1Cl)c1cc(-c2cccc(O)c2)on1,0.3 µg/mL
7,COC(=O)c1ccc(COc2cccnc2[N+](=O)[O-])cc1,4.2 µg/mL
8,Cc1onc(-c2ccccc2)c1C(=O)NCC(=O)Nc1cc(Cl)ccc1Cl,9.4 µg/mL
9,COc1ccccc1CC(=O)Nc1cccc(C(=O)Nc2nccs2)c1,0.7 µg/mL
10,Cc1[nH]c2ccccc2c1SCC(=O)N1CCC(C)CC1,> 45.4 µg/mL
11,CCN(CC(=O)NC(=O)NC1CCCC1)Cc1ccccc1,> 45.5 µg/mL
12,Cc1ccc(C)c(NC(=O)C(=O)NCCc2c[nH]c3ccccc23)c1,0.7 µg/mL
13,O=C1c2cccc3cccc(c23)C(=O)N1c1ccc(O)cc1,< 0.6 µg/mL
14,CC(=O)c1sc(NCc2ccc(C)cc2)nc1C,38.6 µg/mL
15,CCOC(=O)c1c2c([nH]c(=S)c1C#N)CCCC2,29.5 µg/mL
16,Cc1ccc(S(=O)(=O)CC(=O)c2ccccc2[N+](=O)[O-])cc1,42.8 µg/mL
17,CC(C)(C)C(=O)Nc1sc2c(c1C(=O)Nc1ccccn1)CCCC2,< 0.3 µg/mL
18,O=c1[nH]c2cccnc2n1-c1ccc([N+](=O)[O-])cc1,13.3 µg/mL
19,O=C(/C=C/c1ccc([N+](=O)[O-])cc1)OCc1cnc(-c2ccccc2)o1,6.8 µg/mL
20,COc1ccc(C(=O)COC(=O)c2ccccn2)c(OC)c1,> 45.2 µg/mL
